Source: the supplement of paper PMC10307832

Columns and labels:
Experiment in all cases: relative viability (nuclei count vs DMSO), 5 days (fraction); higher = more cells survive
NVP-TAE684 + Vorinostat = compound: COc1cc(N2CCC(N3CCN(C)CC3)CC2)ccc1Nc1ncc(Cl)c(Nc2ccccc2S(=O)(=O)C(C)C)n1 [NVP-TAE684] + O=C(CCCCCCC(=O)Nc1ccccc1)NO [Vorinostat] (partner 1 µM)
Method in brief: (§1)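 Values are medians from duplicate plates. Each reflects relative viability, defined as the nuclei count of treated wells over that of vehicle wells. Lung cancer cell lines in 1536-well plates were pin-tool dosed one day after seeding with one drug alone or with a fixed anchor-drug dose plus five library-drug doses (not always all listed) in √10 steps, then fixed, stained and imaged at 4× after 5 days.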

NVP-TAE684 + Pemetrexed = compound: COc1cc(N2CCC(N3CCN(C)CC3)CC2)ccc1Nc1ncc(Cl)c(Nc2ccccc2S(=O)(=O)C(C)C)n1 [NVP-TAE684] + Nc1nc2[nH]cc(CCc3ccc(C(=O)N[C@@H](CCC(=O)O)C(=O)O)cc3)c2c(=O)[nH]1 [Pemetrexed] (partner 0.2 µM)
Method in brief: as §1

CUDC-101 + Crizotinib = compound: C#Cc1cccc(Nc2ncnc3cc(OC)c(OCCCCCCC(=O)NO)cc23)c1 [CUDC-101] + C[C@@H](Oc1cc(-c2cnn(C3CCNCC3)c2)cnc1N)c1c(Cl)ccc(F)c1Cl [Crizotinib] (partner 1 µM)
Method in brief: as §1

CUDC-101 + Olaparib = compound: C#Cc1cccc(Nc2ncnc3cc(OC)c(OCCCCCCC(=O)NO)cc23)c1 [CUDC-101] + O=C(c1cc(Cc2n[nH]c(=O)c3ccccc23)ccc1F)N1CCN(C(=O)C2CC2)CC1 [Olaparib] (partner 8 µM)
Method in brief: as §1

Cell Line	relative viability (NVP-TAE684 + Vorinostat; first compound 0.2 µM)	relative viability (NVP-TAE684 + Vorinostat; first compound 0.6325 µM)	relative viability (NVP-TAE684 + Vorinostat; first compound 2 µM)	relative viability (NVP-TAE684 + Pemetrexed; first compound 0.2 µM)	relative viability (NVP-TAE684 + Pemetrexed; first compound 0.6325 µM)	relative viability (NVP-TAE684 + Pemetrexed; first compound 2 µM)	relative viability (CUDC-101 + Crizotinib; first compound 0.01 µM)	relative viability (CUDC-101 + Crizotinib; first compound 0.03162 µM)	relative viability (CUDC-101 + Crizotinib; first compound 0.1 µM)	relative viability (CUDC-101 + Crizotinib; first compound 0.3162 µM)	relative viability (CUDC-101 + Crizotinib; first compound 1 µM)	relative viability (CUDC-101 + Olaparib; first compound 0.01 µM)	relative viability (CUDC-101 + Olaparib; first compound 0.03162 µM)	relative viability (CUDC-101 + Olaparib; first compound 0.1 µM)	relative viability (CUDC-101 + Olaparib; first compound 0.3162 µM)	relative viability (CUDC-101 + Olaparib; first compound 1 µM)
201T	1.02	1	0.831	0.334	0.332	0.323	1	1.02	0.979	1.06	0.97	0.867	0.817	0.806	0.8	0.793
A549	–	–	–	–	–	–	0.855	1	0.927	0.793	0.632	0.415	0.24	0.355	0.417	0.286
A-427	0.908	0.848	0.738	–	0.914	0.788	1.05	0.868	0.773	0.829	0.579	0.711	0.671	0.722	0.694	0.607
ABC-1	–	1.01	0.527	–	–	–	0.941	0.906	0.742	0.44	0.33	0.908	0.767	1.14	0.922	0.424
BEN	0.547	0.524	0.419	0.843	0.728	0.682	1.04	0.772	0.933	0.809	0.579	0.91	0.853	1.11	0.785	0.691
CAL-12T	0.786	0.615	0.245	0.973	1.16	0.492	0.67	0.734	0.689	0.701	0.584	0.734	0.681	0.752	0.772	0.668
COR-L23	0.413	0.397	0.101	0.205	0.203	0.197	0.677	0.674	0.626	0.555	0.295	0.402	0.374	0.331	0.266	0.294
COR-L 105	–	0.78	0.509	1.01	0.98	–	0.724	0.825	0.725	0.433	0.267	0.703	0.74	0.759	0.697	0.77
Calu-6	–	–	–	–	–	–	0.835	0.958	0.745	0.664	0.547	0.545	0.503	0.522	0.484	0.332
ChaGo-K-1	0.786	0.691	0.518	0.273	0.246	0.264	1.17	1.14	1.12	1.2	0.924	0.41	0.444	0.42	0.377	0.293
EBC-1	–	–	–	–	–	–	0.17	0.182	0.202	0.147	0.127	0.744	0.674	0.683	0.666	0.26
EKVX	0.677	0.699	0.373	0.376	0.337	0.254	0.977	0.892	0.964	1.07	0.604	1.06	0.737	0.71	0.961	0.624
EMC-BAC-2	0.46	0.338	0.393	0.429	0.405	0.433	0.726	0.76	0.732	0.571	0.388	0.493	0.485	0.485	0.532	0.376
EPLC-272H	0.644	0.283	0.2	0.425	0.297	0.15	0.904	0.904	0.86	0.751	0.582	0.885	0.703	0.596	0.448	0.365
H3255	0.855	0.757	0.667	0.531	0.519	0.449	0.76	0.845	0.387	0.621	0.269	0.653	0.547	0.512	0.442	0.264
HARA	0.525	0.464	0.23	0.262	0.211	0.233	0.904	0.866	0.89	0.799	0.395	1	0.844	–	0.418	0.154
HCC-15	0.841	0.855	0.521	0.245	0.204	0.182	0.804	0.836	0.798	0.843	0.715	0.684	0.726	0.652	0.665	0.499
HCC-44	1.18	1.14	0.928	0.652	–	0.606	0.661	0.712	0.752	0.779	0.748	0.964	1.01	0.893	0.972	1.07
HCC-78	0.316	0.411	0.23	0.886	0.912	0.93	0.365	0.298	0.354	0.301	0.103	1.01	0.688	0.821	0.584	0.341
HCC-366	0.365	0.311	0.239	0.197	0.178	0.227	0.531	0.535	0.557	0.5	0.372	0.363	0.353	0.325	0.345	0.245
HCC-827	0.754	0.762	0.793	0.259	0.262	0.261	0.966	0.501	0.298	0.218	0.174	0.718	0.302	0.157	0.221	0.123
